Structures can show the parent of a compound that is named as a salt.
Columns and labels:
[1] = specific activity relative to culture filtrate (arbitrary units)
Method: The material produced above was arbitrarily assigned an activity of 340 1/ml. Assays were determined as described in Description 3.

[2] = solubility; conditions: sodium salt
[3] = tested on: B. subtilis, Staphylococcus aureus, Escherichia coli, Salmonella typhimurium, Proteus mirabilis, Proteus morganii and Klebsiella aerogenes; experiment: detection by bioautography after cellulose TLC (qualitative); assay type: cell-based, various bacterial species; conditions: n-butanol:isopropanol:water 7:7:6
[4] = stability; assay type: physicochemical; conditions: monobasic salts and free acid
[5] = tested on: Escherichia coli, Klebsiella aerogenes, Proteus mirabilis, Proteus morganii and Staphylococcus aureus Russell; experiment: synergy with ampicillin (qualitative); assay type: cell-based
[6] = tested on: various species including strains of Staphylococcus aureus, Bacillus subtilis, Escherichia coli, Klebsiella aerogenes, Proteus mirabilis; experiment: antibacterial activity (qualitative); assay type: cell-based, various bacterial species; conditions: sodium salt, inter alia S. aureus, B. subtilis, E. coli, K. aerogenes, P. mirabilis
[7] = tested on: Enterobacter aerogenes; experiment: bioautography zone diameter (cellulose TLC); assay type: cell-based; conditions: butanol/isopropyl alcohol/water 7:7:6
[8] = tested on: E. coli JT39; experiment: MIC, serial dilution in nutrient agar, synergism with ampicillin; assay type: cell-based; conditions: alone
[9] = tested on: Proteus mirabilis 247; experiment: as above; assay type: cell-based; conditions: alone
[10] = tested on: Staph. aureus (Russell); experiment: as above; assay type: cell-based; conditions: alone
[11] = tested on: Staph. aureus (Russell H); experiment: as above; assay type: cell-based; conditions: alone
[12] = tested on: Proteus mirabilis 889; experiment: as above; assay type: cell-based; conditions: alone
[13] = tested on: Proteus rettgeri R110; experiment: as above; assay type: cell-based; conditions: alone
[14] = tested on: E. coli B11; experiment: as above; assay type: cell-based; conditions: alone
[15] = tested on: Proteus morganii; experiment: bioautography zone diameter (cellulose TLC); assay type: cell-based; conditions: butanol/isopropyl alcohol/water 7:7:6
[16] = tested on: Staphylococcus aureus (Russell); experiment: bioautography zone diameter (cellulose TLC); assay type: cell-based; conditions: butanol/isopropyl alcohol/water 7:7:6
[17] = biological target: β-lactamases produced by Staphylococcus aureus (Staphylococcus aureus, UniProt P00807); experiment: β-lactamase inhibition (qualitative); assay type: biochemical
[18] = tested on: β-lactamase of Escherichia coli B11; experiment: I50 determination: inhibition of hydrolysis of ampicillin by E. coli B11 β-lactamase (starch-iodometric assay); assay type: biochemical; conditions: MM 4550A
Excerpt: This β-lactamase is classified as a type IIIa enzyme according to the classification of Richmond and Sykes [Adv. in Microbiol.Physiol. 9 31 (1973)]
The rate of β-lactamase hydrolysis of ampicillin to its penicilloic acid can be followed by a starch-iodometric assay in which one measures the rate of formation of penicilloic acid by following the decolorization of a starch-iodine complex. This method and the preparation of the β-lactamase are described in a paper by Cole M., Elson S., and Fullbrook P.D. (Biochemical Journal 1972, 127, 295-308). […] The procedure was as follows:
Buffer: 0.05M pH7 potassium phosphate buffer
Prepared from E. coli B11 as described by Cole
Enzyme: et al, Biochem. J. (1972) 127, 295. The dilution
of the enzyme preparation in buffer was such as
to give a fall of about 0.3 optical density
units per 100 secs. in the uninhibited reaction.
The reactions were carried out in 1 cm cuvettes at 37° C. in an SP 800 Pye Unicam spectrophotometer. This instrument can carry four sample cuvettes and their corresponding blanks. The first cuvette was used for the control reaction and contained no inhibitor. The 2nd, 3rd and 4th cuvettes were used for various dilutions of the inhibitor.
Inhibitor of buffer 0.1 ml 0.1 ml
Substrate (added after incubation […]

[19] = tested on: β-lactamases produced by Klebsiella aerogenes; experiment: β-lactamase inhibition (qualitative); assay type: biochemical
[20] = biological target: Escherichia coli β-lactamase (Escherichia coli, UniProt P62593); experiment: β-lactamase inhibition (qualitative); assay type: biochemical
Excerpt: In a further experiment, the two substances were separated on a cellulose thin layer developed with isopropanol:water (8:2) and extracted from the cellulose with phosphate buffer.

[21] = tested on: Escherichia coli 10418; experiment: bioautography zone diameter (cellulose TLC); assay type: cell-based; conditions: butanol/isopropyl alcohol/water 7:7:6
[22] = tested on: Staphylococcus aureus (Oxford); experiment: bioautography zone diameter (cellulose TLC); assay type: cell-based; conditions: butanol/isopropyl alcohol/water 7:7:6
[23] = tested on: Klebsiella aerogenes; experiment: bioautography zone diameter (cellulose TLC); assay type: cell-based; conditions: butanol/isopropyl alcohol/water 7:7:6
[24] = tested on: Bacillus subtilis; experiment: bioautography zone diameter (cellulose TLC); assay type: cell-based; conditions: butanol/isopropyl alcohol/water 7:7:6

Escherichia coli β-lactamase, sequence (P62593 24-286 limits assumed): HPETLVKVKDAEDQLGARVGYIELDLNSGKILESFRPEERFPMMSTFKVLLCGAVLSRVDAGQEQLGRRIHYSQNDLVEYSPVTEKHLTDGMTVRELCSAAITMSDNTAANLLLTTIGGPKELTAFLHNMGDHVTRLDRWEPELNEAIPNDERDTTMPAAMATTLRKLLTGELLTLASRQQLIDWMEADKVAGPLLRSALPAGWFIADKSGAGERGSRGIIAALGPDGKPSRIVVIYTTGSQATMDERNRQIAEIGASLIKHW
β-lactamases produced by Staphylococcus aureus, sequence (P00807 25-281): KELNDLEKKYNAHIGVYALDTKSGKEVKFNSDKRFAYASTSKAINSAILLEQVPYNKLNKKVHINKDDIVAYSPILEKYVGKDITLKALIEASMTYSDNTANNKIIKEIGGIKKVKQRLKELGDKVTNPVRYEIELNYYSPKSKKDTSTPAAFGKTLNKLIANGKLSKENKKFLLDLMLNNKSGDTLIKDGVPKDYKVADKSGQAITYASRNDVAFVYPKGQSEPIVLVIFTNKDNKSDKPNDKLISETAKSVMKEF

SMILES: CC(=O)N/C=C/SC1=C(C(=O)O)N2C(=O)C(C(C)OS(=O)(=O)O)C2C1 (stereo not shown) [MM 13902 di-sodium salt]
- activity ([1]; after cellulose chromatography, yellowish powder): 73,000 units/mg

SMILES: CC(=O)N/C=C/SC1=C(C(=O)O)N2C(=O)C(C(C)OS(=O)(=O)O)C2C1 (stereo not shown) [MM 13902]
- solubility in chloroform, diethylether and hydrocarbons [2]: substantially insoluble
- solubility in methanol [2]: soluble
- solubility in water [2]: highly soluble
- activity ([1]; partially purified, after Amberlite XAD 4): 37,000 units/mg
- detection by bioautography [3]: may be detected by bioautography on a variety of organisms
- stability to isolation from mixtures such as MM 4550 (Complex) [4]: not sufficiently stable to isolate from mixtures
- synergy when mixed with ampicillin [5]: synergizes its activity
- antibacterial activity against various species ([6]; Salmonella typhi, Ps. aeruginosa): possessed antibacterial activity
- Zone Diameter on Bioautography [7]: No Zone

SMILES: CC1(C)S[C@@H]2[C@H](NC(=O)[C@H](N)c3ccccc3)C(=O)N2[C@H]1C(=O)O [Ampicillin, ampicillin]
- minimum inhibitory concentration [8]: > 500
- minimum inhibitory concentration [9]: > 500
- minimum inhibitory concentration [10]: 250
- minimum inhibitory concentration [11]: > 500
- minimum inhibitory concentration [12]: > 500
- minimum inhibitory concentration [13]: 250
- minimum inhibitory concentration [14]: > 500

SMILES: CC(=O)N/C=C/[S+]([O-])C1=C(C(=O)O)N2C(=O)C(C(C)OS(=O)(=O)O)C2C1 (stereo not shown) [MM 4550A]
- Zone Diameter on Bioautography [15]: 16.0 mm
- solubility in chloroform, diethylether and hydrocarbons [2]: substantially insoluble
- solubility in methanol [2]: soluble
- solubility in water [2]: highly soluble
- Zone Diameter on Bioautography [16]: 12.0 mm
- enzyme inhibitory activity against β-lactamase [17]: possesses enzyme inhibitory activity
- I50 [18]: less than 0.0001 μg/ml
- detection by bioautography [3]: may be detected by bioautography on a variety of organisms
- enzyme inhibitory activity against β-lactamase [19]: possesses enzyme inhibitory activity
- enzyme inhibitory activity against β-lactamase [20]: possesses enzyme inhibitory activity
- Zone Diameter on Bioautography [21]: 20.0 mm
- Zone Diameter on Bioautography [22]: 13.0 mm
- Zone Diameter on Bioautography [23]: 20.0 mm
- Zone Diameter on Bioautography [24]: 24.0 mm
- synergy when mixed with ampicillin [5]: synergyses its activity
- antibacterial activity against various species ([6]; Acinetobacter anitratus, Serratia, Shigella sonnei): possesses antibacterial activity
- Zone Diameter on Bioautography [7]: 6.5 mm
